Tests used:
[1] = system: SKOV3: human ovarian carcinoma cell line; assay: Proliferation IC50 assay, oxic/hypoxic, SKOV3; type: cell-based; conditions: Table 3; for IC50: Homo sapiens, SK-OV-3, 4 h exposure under aerobic conditions
HT29 clonogens = assay: Clonogenic assay (C10), oxic/hypoxic, HT29; type: cell-based, human; conditions: for Clonogenic HCR HT29: C10(aerobic)/C10(hypoxic); for Clonogenic C10 HT29 Oxic: concentration to reduce HT29 clonogens to 10% of controls, 4 hr exposure under aerobic conditions
[2] = One-electron reduction potential E(1) by pulse radiolysis; type: physicochemical; conditions: determined by pulse radiolysis
[3] = Plasma pharmacokinetics after intravenous 36 in mice (LC/MS/MS); type: in vivo, CD-1 mice (nu/+ heterozygotes); conditions: CD-1 (nu/+ heterozygotes), mouse
Experimental: The compounds were assayed in plasma, following precipitation of proteins with methanol, using an LC/MS/MS (triple quadrupole mass spectrometer).

[4] = system: HT29: human colon cancer cell line; assay: Proliferation IC50 assay, oxic/hypoxic, HT29; type: cell-based; conditions: Table 3; for IC50: Homo sapiens, HT-29, 4 h exposure under aerobic conditions
[5] = Hypoxic metabolism with HT29 tumour S9 (HPLC); conditions: 10 μM with tumour S9 (12 mg/mL protein), 37° C., pH 7.4, NADPH 1 mM, 2 h, hypoxic; products R3, 56, 55, 60
Source text: Metabolism of compounds of Formula I was investigated using S9 preparations from HT29 tumours grown as xenografts in CD-1 mice.

Row | SMILES | IC50 [1] [µM] | HCR (hypoxic cytotoxicity ratio) SKOV3 ([1]; IC50(aerobic)/IC10(hypoxic)) | Clonogenic HCR HT29 (HT29 clonogens) | Clonogenic C10 HT29 Oxic (HT29 clonogens) [µM] | AUC for 90% kill of HT29 cells under hypoxic conditions (HT29 clonogens; estimated from the clonogenic assay data in Table 3) [µM·min] | melting point [°C] | E(1): one-electron reduction potential [2] [mV] | AUC ([3]; intravenous, 42.1 μmol/kg, 35 derived from 36, plasma, mice) [µM·h] | AUC ([3]; iv, 42.1 umol/kg, plasma, CD-1 mice, 36 i.v. 42.1 μmol/kg, 35 as metabolite of 36, mean) [µM·h] | clearance ([3]; iv, 42.1 umol/kg, plasma, CD-1 mice, 36 i.v. 42.1 μmol/kg, 35 as metabolite of 36, mean, read-out: Cl (clearance)) [mL/min/kg] | half-life ([3]; iv, 42.1 umol/kg, plasma, CD-1 mice, 36 i.v. 42.1 μmol/kg, 35 as metabolite of 36, mean, read-out: T1/2 (terminal half-life)) [min] | Vd ([3]; iv, 42.1 umol/kg, plasma, CD-1 mice, 36 i.v. 42.1 μmol/kg, 35 as metabolite of 36, mean, read-out: Vd (volume of distribution based on the terminal phase)) [L/kg] | IC50 [4] [µM] | HCR (hypoxic cytotoxicity ratio) HT29 ([4]; IC50(aerobic)/IC10(hypoxic)) | k: rate of formation of compound of Formula II [5] [µM/h]
1 | CN(C)CCOc1ccc2[nH]c(C(=O)N3CC(CCl)c4c3cc([N+](=O)[O-])c3cc(S(=O)(=O)NCCO)ccc43)cc2c1 (centres unmarked) [Compound 35, 1-(Chloromethyl)-3-{5-[2-(dimethylamino)ethoxy]indol-2-carbonyl}-N-(2-hydroxyethyl)-5-nitro-1,2-dihydro-3H-benzo[e]indole-7-sulfonamide] | 9.2 | 250 | 74.4 | 115 | 371 | 205 to 210 | −392 ± 7 | ~11.7 | 11.7 | 61 | 43 | 3.8 | 5.5 | 90 | –
2 | CN(C)CCOc1ccc2[nH]c(C(=O)N3CC(CCl)c4c3cc([N+](=O)[O-])c3ccccc43)cc2c1 (centres unmarked) [Compound R2, reference compound] | 1.4 | – | 2 | 4.8 | – | – | −512 ± 8 | – | – | – | – | – | 0.47 | – | 0.49
